Laboratory results reported in ChEMBL document CHEMBL1156571, “ent-kaurane diterpenoids from the liverwort Jungermannia atrobrunnea” (2008).
Converted amounts (≈) assume the structure as drawn.

System: Candida albicans
Assay: Antifungal activity against Candida albicans ATCC 10231 after 24 hrs by broth microdilution method
Details: ATCC 10231, 24 h

SMILES | MIC
C=C1[C@@H]2CC=C3[C@](C2)(C[C@H](O)[C@@H]2C(C)(C)CCC[C@@]32C)[C@@H]1OC(C)=O | 128 µg/mL (≈ 372 µM)
C=C1C(=O)[C@@H]2C3=C(C[C@H](OC(C)=O)[C@@H]4C(C)(C)CC[C@H](OC(C)=O)[C@@]34C)C[C@H]1[C@@H]2O | 128 µg/mL (≈ 307 µM)
C=C1C(=O)[C@@H]2C3=C(C[C@H]1[C@@H]2O)C[C@H](O)[C@@H]1C(C)(C)CC[C@H](OC(C)=O)[C@@]31C | 128 µg/mL (≈ 342 µM)
C=C1C(=O)[C@]23C[C@H]1C(=O)C=C2[C@]1(C)[C@@H](OC(C)=O)CCC(C)(C)[C@H]1[C@@H](OC(C)=O)C3 | 128 µg/mL (≈ 309 µM)
C=C1C(=O)[C@@]23C[C@H](OC(C)=O)[C@@H]4C(C)(C)CC[C@H](OC(C)=O)[C@@]4(C)C2=C[C@@H](O)[C@@H]1C3 | 128 µg/mL (≈ 307 µM)
C=C1C(=O)[C@@]23C[C@H](OC(C)=O)[C@@H]4C(C)(C)CC[C@H](O)[C@@]4(C)C2=C[C@@H](O)[C@@H]1C3 | 128 µg/mL (≈ 342 µM)
CC(=O)O[C@H]1C[C@@]23C[C@@H](C(=O)C=C2[C@]2(C)[C@@H](OC(C)=O)CCC(C)(C)[C@@H]12)[C@@H](C)C3=O | 128 µg/mL (≈ 307 µM)
C=C1[C@H]2C[C@@]3(C[C@H](OC(C)=O)[C@@H]4C(C)(C)CCC[C@@]4(C)C3=CC2=O)[C@@H]1OC(C)=O | 128 µg/mL (≈ 320 µM)
C=C1[C@@H]2CC=C3[C@](C2)(C[C@H](OC(C)=O)[C@@H]2C(C)(C)CCC[C@@]32C)[C@@H]1OC(C)=O | 128 µg/mL (≈ 331 µM)
C=C1[C@H]2CC3=C[C@H](OC(C)=O)[C@@H]4C(C)(C)CC[C@H](OC(C)=O)[C@@]4(C)[C@@]34OO[C@]1(O)[C@H]4[C@H]2O [JUNGERMATROBRUNIN A] | 128 µg/mL (≈ 285 µM)
